Like-named read-outs stand apart in the source and are kept apart here.
Legend:
[1] = system: Rice (Oryza sativa) 'Cybonee'; settings: PRE, direct-seeded dryland rice
Description: (§1) Rice (Oryza sativa) was planted in 6″ by 10″ fiber flats filled with sterile top soil. Five rows were made in each flat and the three rice varieties (′Cybonee, ‘Jupiter’, and ‘Taggart’) were planted in the center 3 rows and a row of red rice (Oryza sativa) was planted on either end of the flat. The flats were watered after planting. After application flats were placed in the greenhouse and lightly watered. […] The flats were moved to a greenhouse and watered and fertilized routinely. Studies were conducted using randomized complete block design with four replications. In both studies, visual percent red rice control and rice injury were recorded at 14, 21, and 28 days after treatment (DAT), using a scale of 0 (no control/injury) to 100 (complete plant death).

[2] = system: Rice (Oryza sativa) 'Taggart'; settings: PRE, direct-seeded dryland rice
Description: as §1

large crabgrass = experiment: Direct seeded dryland rice test, pre-emergent (FIG. 2); type: in vivo; settings: pre-emergent treatment at 25 g ai/ha
[3] = system: Rice (Oryza sativa) 'Cybonee'; settings: PRE, direct-seeded flooded rice
Method: (§2) Rice (Oryza sativa) crop varieties (‘Cybonee’, ‘Jupiter’, and ‘Taggart’) and red rice (Oryza sativa) were planted in 6 inch plastic pots containing sterile top soil. Eight to ten seeds of each species were seeded at 12 o'clock, 3 o'clock, 6 o'clock or 9 o'clock around the pot. The pots were watered after planting. […] The test solutions were applied using a compressed air track spray chamber at 30 gallons per acre using a Teejet 8001E nozzle at 40 PSI, three replicates per test rate. After treatment, the pots were watered lightly and transferred to trays in a greenhouse. After the plants were two inches in height the trays were flooded with water and maintained as such for 14 days. The trays were emptied of water and the pots were maintained by regular watering for 4 more days. At 14, 21 and 28 days after treatment (DAT) the plants were evaluated versus untreated control pots containing the same rice and weeds using a scale of 0% (no control) to 100% (complete plant death).

[4] = system: Rice (Oryza sativa) 'Taggart'; settings: PRE, direct-seeded flooded rice
Method: as §2

[5] = system: Rice (Oryza sativa) 'Jupiter'; settings: PRE, direct-seeded flooded rice
Method: as §2

With `CS(=O)(=O)c1ccc(C(=O)C2C(=O)CCCC2=O)c([N+](=O)[O-])c1` [Mesotrione, mesotrione] the “Percent rice injury Cybonet” value ([1]; 14 DAT, 12.5 g ai/ha) was 6 BCD %, the “Percent rice injury Cybonet” value ([1]; 14 DAT, 25 g ai/ha) was 1 D % and the “Percent rice injury Cybonet” value ([1]; 14 DAT, 37.5 g ai/ha) was 1 D %. For the same compound, the “Percent rice injury Cybonet” value ([1]; 14 DAT, 50 g ai/ha) was 1 D %, the “Percent rice injury Cybonet” value ([1]; 14 DAT, 62.5 g ai/ha) was 4 D % and the “Percent rice injury Cybonet” value ([1]; 14 DAT, 75 g ai/ha) was 5 CD %. For the same compound, the “Percent rice injury Cybonet” value ([1]; 14 DAT, 87.5 g ai/ha) was 11 BC %, the “Percent rice injury Cybonet” value ([1]; 14 DAT, 100 g ai/ha) was 12 B % and the “Percent rice injury Cybonet” value ([1]; 21 DAT, 12.5 g ai/ha) was 5 DE %. For the same compound, the “Percent rice injury Cybonet” value ([1]; 21 DAT, 25 g ai/ha) was 1 E %, the “Percent rice injury Cybonet” value ([1]; 21 DAT, 37.5 g ai/ha) was 1 E % and the “Percent rice injury Cybonet” value ([1]; 21 DAT, 50 g ai/ha) was 5 DE %. The “Percent rice injury Cybonet” value ([1]; 21 DAT, 62.5 g ai/ha) was 5 DE %, the “Percent rice injury Cybonet” value ([1]; 21 DAT, 75 g ai/ha) was 8 BCD % and the “Percent rice injury Cybonet” value ([1]; 21 DAT, 87.5 g ai/ha) was 12 BC %. The “Percent rice injury Cybonet” value ([1]; 21 DAT, 100 g ai/ha) was 13 B %, the “Percent rice injury Cybonet” value ([1]; 28 DAT, 12.5 g ai/ha) was 5 DE % and the “Percent rice injury Cybonet” value ([1]; 28 DAT, 25 g ai/ha) was 1 E %. The “Percent rice injury Cybonet” value ([1]; 28 DAT, 37.5 g ai/ha) was 1 E %, the “Percent rice injury Cybonet” value ([1]; 28 DAT, 50 g ai/ha) was 6 DE % and the “Percent rice injury Cybonet” value ([1]; 28 DAT, 62.5 g ai/ha) was 9 DE %. For the same compound, the “Percent rice injury Cybonet” value ([1]; 28 DAT, 75 g ai/ha) was 15 CD %, the “Percent rice injury Cybonet” value ([1]; 28 DAT, 87.5 g ai/ha) was 25 BC % and the “Percent rice injury Cybonet” value ([1]; 28 DAT, 100 g ai/ha) was 33 AB %. For the same compound, the “Percent rice injury Taggart” value ([2]; 14 DAT, 12.5 g ai/ha) was 0 E %, the “Percent rice injury Taggart” value ([2]; 14 DAT, 25 g ai/ha) was 0 E % and the “Percent rice injury Taggart” value ([2]; 14 DAT, 37.5 g ai/ha) was 1 E %. The “Percent rice injury Taggart” value ([2]; 14 DAT, 50 g ai/ha) was 2 DE %, the “Percent rice injury Taggart” value ([2]; 14 DAT, 62.5 g ai/ha) was 6 C % and the “Percent rice injury Taggart” value ([2]; 14 DAT, 75 g ai/ha) was 5 CD %. For the same compound, the “Percent rice injury Taggart” value ([2]; 14 DAT, 87.5 g ai/ha) was 9 BC %, the “Percent rice injury Taggart” value ([2]; 14 DAT, 100 g ai/ha) was 11 B % and the “Percent rice injury Taggart” value ([2]; 21 DAT, 12.5 g ai/ha) was 0 C %. The “Percent rice injury Taggart” value ([2]; 21 DAT, 25 g ai/ha) was 0 C %, the “Percent rice injury Taggart” value ([2]; 21 DAT, 37.5 g ai/ha) was 1 BC % and the “Percent rice injury Taggart” value ([2]; 21 DAT, 50 g ai/ha) was 5 BC %. For the same compound, the “Percent rice injury Taggart” value ([2]; 21 DAT, 62.5 g ai/ha) was 9 BC %, the “Percent rice injury Taggart” value ([2]; 21 DAT, 75 g ai/ha) was 10 BC % and the “Percent rice injury Taggart” value ([2]; 21 DAT, 87.5 g ai/ha) was 11 BC %. The “Percent rice injury Taggart” value ([2]; 21 DAT, 100 g ai/ha) was 13 B %, the “Percent rice injury Taggart” value ([2]; 28 DAT, 12.5 g ai/ha) was 0 D % and the “Percent rice injury Taggart” value ([2]; 28 DAT, 25 g ai/ha) was 0 D %. The “Percent rice injury Taggart” value ([2]; 28 DAT, 37.5 g ai/ha) was 1 D %, the “Percent rice injury Taggart” value ([2]; 28 DAT, 50 g ai/ha) was 6 CD % and the “Percent rice injury Taggart” value ([2]; 28 DAT, 62.5 g ai/ha) was 12 BCD %. The “Percent rice injury Taggart” value ([2]; 28 DAT, 75 g ai/ha) was 23 BC %, the “Percent rice injury Taggart” value ([2]; 28 DAT, 87.5 g ai/ha) was 29 B % and the “Percent rice injury Taggart” value ([2]; 28 DAT, 100 g ai/ha) was 50 A %. For the same compound, the “large crabgrass control (words, FIG. 2)” value (large crabgrass) was “controlled”, the “Percent rice injury Cybonet” value ([3]; 14 DAT, 12.5 g ai/ha) was 2 B % and the “Percent rice injury Cybonet” value ([3]; 14 DAT, 25 g ai/ha) was 0 B %. The “Percent rice injury Cybonet” value ([3]; 14 DAT, 37.5 g ai/ha) was 3 B %, the “Percent rice injury Cybonet” value ([3]; 14 DAT, 50 g ai/ha) was 4 B % and the “Percent rice injury Cybonet” value ([3]; 14 DAT, 62.5 g ai/ha) was 11 B %. For the same compound, the “Percent rice injury Cybonet” value ([3]; 14 DAT, 75 g ai/ha) was 9 B %, the “Percent rice injury Cybonet” value ([3]; 14 DAT, 87.5 g ai/ha) was 12 B % and the “Percent rice injury Cybonet” value ([3]; 14 DAT, 100 g ai/ha) was 11 B %. For the same compound, the “Percent rice injury Cybonet” value ([3]; 21 DAT, 12.5 g ai/ha) was 1 C %, the “Percent rice injury Cybonet” value ([3]; 21 DAT, 25 g ai/ha) was 4 C % and the “Percent rice injury Cybonet” value ([3]; 21 DAT, 37.5 g ai/ha) was 8 C %. For the same compound, the “Percent rice injury Cybonet” value ([3]; 21 DAT, 50 g ai/ha) was 6 C %, the “Percent rice injury Cybonet” value ([3]; 21 DAT, 62.5 g ai/ha) was 13 BC % and the “Percent rice injury Cybonet” value ([3]; 21 DAT, 75 g ai/ha) was 32 ABC %. The “Percent rice injury Cybonet” value ([3]; 21 DAT, 87.5 g ai/ha) was 44 AB %, the “Percent rice injury Cybonet” value ([3]; 21 DAT, 100 g ai/ha) was 49 A % and the “Percent rice injury Cybonet” value ([3]; 28 DAT, 12.5 g ai/ha) was 5 CD %. For the same compound, the “Percent rice injury Cybonet” value ([3]; 28 DAT, 25 g ai/ha) was 7 CD %, the “Percent rice injury Cybonet” value ([3]; 28 DAT, 37.5 g ai/ha) was 9 CD % and the “Percent rice injury Cybonet” value ([3]; 28 DAT, 50 g ai/ha) was 7 CD %. The “Percent rice injury Cybonet” value ([3]; 28 DAT, 62.5 g ai/ha) was 17 BCD %, the “Percent rice injury Cybonet” value ([3]; 28 DAT, 75 g ai/ha) was 32 ABC % and the “Percent rice injury Cybonet” value ([3]; 28 DAT, 87.5 g ai/ha) was 52 A %. For the same compound, the “Percent rice injury Cybonet” value ([3]; 28 DAT, 100 g ai/ha) was 62 A %, the “Percent rice injury Taggart” value ([4]; 14 DAT, 12.5 g ai/ha) was 4 B % and the “Percent rice injury Taggart” value ([4]; 14 DAT, 25 g ai/ha) was 1 B %. The “Percent rice injury Taggart” value ([4]; 14 DAT, 37.5 g ai/ha) was 4 B %, the “Percent rice injury Taggart” value ([4]; 14 DAT, 50 g ai/ha) was 7 B % and the “Percent rice injury Taggart” value ([4]; 14 DAT, 62.5 g ai/ha) was 12 B %. For the same compound, the “Percent rice injury Taggart” value ([4]; 14 DAT, 75 g ai/ha) was 12 B %, the “Percent rice injury Taggart” value ([4]; 14 DAT, 87.5 g ai/ha) was 19 B % and the “Percent rice injury Taggart” value ([4]; 14 DAT, 100 g ai/ha) was 18 B %. For the same compound, the “Percent rice injury Taggart” value ([4]; 21 DAT, 12.5 g ai/ha) was 1 D %, the “Percent rice injury Taggart” value ([4]; 21 DAT, 25 g ai/ha) was 1 D % and the “Percent rice injury Taggart” value ([4]; 21 DAT, 37.5 g ai/ha) was 1 D %. For the same compound, the “Percent rice injury Taggart” value ([4]; 21 DAT, 50 g ai/ha) was 6 D %, the “Percent rice injury Taggart” value ([4]; 21 DAT, 62.5 g ai/ha) was 10 CD % and the “Percent rice injury Taggart” value ([4]; 21 DAT, 75 g ai/ha) was 25 BCD %. For the same compound, the “Percent rice injury Taggart” value ([4]; 21 DAT, 87.5 g ai/ha) was 35 BC %, the “Percent rice injury Taggart” value ([4]; 21 DAT, 100 g ai/ha) was 38 B % and the “Percent rice injury Taggart” value ([4]; 28 DAT, 12.5 g ai/ha) was 2 C %. For the same compound, the “Percent rice injury Taggart” value ([4]; 28 DAT, 25 g ai/ha) was 4 C %, the “Percent rice injury Taggart” value ([4]; 28 DAT, 37.5 g ai/ha) was 4 C % and the “Percent rice injury Taggart” value ([4]; 28 DAT, 50 g ai/ha) was 9 C %. For the same compound, the “Percent rice injury Taggart” value ([4]; 28 DAT, 62.5 g ai/ha) was 9 C %, the “Percent rice injury Taggart” value ([4]; 28 DAT, 75 g ai/ha) was 29 BC % and the “Percent rice injury Taggart” value ([4]; 28 DAT, 87.5 g ai/ha) was 42 AB %. For the same compound, the “Percent rice injury Taggart” value ([4]; 28 DAT, 100 g ai/ha) was 53 AB %, the “Percent rice injury Jupiter” value ([5]; 14 DAT, 12.5 g ai/ha) was 2 B % and the “Percent rice injury Jupiter” value ([5]; 14 DAT, 25 g ai/ha) was 2 B %. For the same compound, the “Percent rice injury Jupiter” value ([5]; 14 DAT, 37.5 g ai/ha) was 4 B %, the “Percent rice injury Jupiter” value ([5]; 14 DAT, 50 g ai/ha) was 2 B % and the “Percent rice injury Jupiter” value ([5]; 14 DAT, 62.5 g ai/ha) was 5 B %. For the same compound, the “Percent rice injury Jupiter” value ([5]; 14 DAT, 75 g ai/ha) was 6 B %, the “Percent rice injury Jupiter” value ([5]; 14 DAT, 87.5 g ai/ha) was 12 B % and the “Percent rice injury Jupiter” value ([5]; 14 DAT, 100 g ai/ha) was 11 B %. For the same compound, the “Percent rice injury Jupiter” value ([5]; 21 DAT, 12.5 g ai/ha) was 0 D %, the “Percent rice injury Jupiter” value ([5]; 21 DAT, 25 g ai/ha) was 0 D % and the “Percent rice injury Jupiter” value ([5]; 21 DAT, 37.5 g ai/ha) was 1 CD %. The “Percent rice injury Jupiter” value ([5]; 21 DAT, 50 g ai/ha) was 3 CD %, the “Percent rice injury Jupiter” value ([5]; 21 DAT, 62.5 g ai/ha) was 5 CD % and the “Percent rice injury Jupiter” value ([5]; 21 DAT, 75 g ai/ha) was 13 BCD %. For the same compound, the “Percent rice injury Jupiter” value ([5]; 21 DAT, 87.5 g ai/ha) was 22 BC %, the “Percent rice injury Jupiter” value ([5]; 21 DAT, 100 g ai/ha) was 28 B % and the “Percent rice injury Jupiter” value ([5]; 28 DAT, 12.5 g ai/ha) was 2 D %. The “Percent rice injury Jupiter” value ([5]; 28 DAT, 25 g ai/ha) was 2 D %, the “Percent rice injury Jupiter” value ([5]; 28 DAT, 37.5 g ai/ha) was 4 D % and the “Percent rice injury Jupiter” value ([5]; 28 DAT, 50 g ai/ha) was 5 D %. The “Percent rice injury Jupiter” value ([5]; 28 DAT, 62.5 g ai/ha) was 8 CD %, the “Percent rice injury Jupiter” value ([5]; 28 DAT, 75 g ai/ha) was 20 BCD % and the “Percent rice injury Jupiter” value ([5]; 28 DAT, 87.5 g ai/ha) was 44 B %. For the same compound, the “Percent rice injury Jupiter” value ([5]; 28 DAT, 100 g ai/ha) was 41 BC %.

— patent publication US9635854B2, “Controlling red rice with mesotrione” (FMC Corporation, priority 2014, dated 2017)
